{"source": "patent US20130281390A1", "about": "“METHOD FOR TREATING DRY EYE” (priority 2010, published 2013)", "origin": "cited, not measured here", "system": "subjects with meibomian gland dysfunction", "settings": "daily topical administration to the ocular surface", "data": [{"smiles": "CC[C@H]1OC(=O)[C@H](C)[C@@H](O[C@H]2C[C@@](C)(OC)[C@@H](O)[C@H](C)O2)[C@H](C)[C@@H](O[C@@H]2O[C@H](C)C[C@H](N(C)C)[C@H]2O)[C@](C)(O)C[C@@H](C)CN(C)[C@H](C)[C@@H](O)[C@]1(C)O", "note": "[azithromycin]", "values": [{"measurement": "physicochemical properties of the meibum", "value": "improved the physicochemical properties of the meibum towards that of normal subjects"}]}]}
